Source: patent US20250073186A1, “COMBINATION TREATMENT METHODS” (Rose Research Center, LLC, priority 2021, published 2025)

Columns and labels:
cigarette smoking adults = experiment: Open-label switching study: side effects (AE/SAE reporting) and adherence; type: in vivo, human; conditions: zonisamide added to bupropion
Description: There was a data collection period of at least five days to obtain baseline data on use of combustible cigarettes. Participants enrolled in the study received a G6 e-cigarette at V2 for ad libitum use.
At each session, expired air CO was measured along with blood pressure, heart rate, respiratory rate and body weight. Participants also completed questionnaires rating subjective effects of smoking and e-cigarette use. Participants were given enough cartomizers and study drugs to last until their next scheduled session, along with an extra 4 days' worth to allow for flexibility in case sessions need to be rescheduled. E-cigarette usage and study drug compliance were tracked not only by self-reported number of occasions used, but also by cartomizer counts (used or unused) and returned study drugs.
AE/SAE Reporting AEs/SAEs were assessed using questionnaires and interviews at the indicated time points and spontaneous reporting from the time of ICF signature until the EOS for the participant.

smokers [1] = conditions: cited from earlier work
smokers [2] = conditions: bupropion alone; cited from earlier work

| Structure (SMILES) | effect on adverse events associated with bupropion, such as insomnia (cigarette smoking adults) | effect on anger, restlessness and impatience (smokers [1]; during smoking abstinence) | effect on ad libitum smoking (smokers [1]; in vivo) | effect on craving for cigarettes (smokers [1]; in vivo) | typical abstinence rate (smokers [2]) [%] |
| --- | --- | --- | --- | --- | --- |
| NS(=O)(=O)Cc1noc2ccccc12 [zonisamide] | appeared to reduce incidences of adverse events associated with bupropion | decrease anger, restlessness and impatience | reduce ad libitum smoking | relieve craving for cigarettes | – |
| CC(NC(C)(C)C)C(=O)c1cccc(Cl)c1 (centres unmarked) [bupropion] | – | – | – | – | ~25 |
